The assay has as its target 17β-HSD1 (Homo sapiens (Human), UniProt P14061). The assay is described as follows: 17β-HSD1 test assay (recombinant protein from Sf9 insect cells, 3H-estrone/NADPH). The conditions noted are these: for inhibition at 1 µM: read-out: HSD 1 μM (% inhibition of HSD1), inhibitor 1 μM; for inhibition at 0.1 µM: read-out: HSD1 100 nM (% inhibition), inhibitor 100 nM. Format: biochemical. The method, then:
Recombinant protein obtained from Sf9 insect cells (0.1 μg/ml) is incubated with 20 mM KH2PO4, pH 7.4, 30 nM ^3H-estrone and 1 mM NADPH for 30 min at RT in the presence of the potential inhibitor in a concentration of 1 μM or 100 nM. The stock solutions of the compounds are prepared in DMSO (dimethylsulfoxide) so that the final concentration of DMSO in the sample is 1%. After the prescribed incubation time, the reaction is quenched by adding trichloroacetic acid (10% final concentration). The samples are centrifuged in microtitration plates at 400 rpm for 10 min, and the supernatants are charged on a reversed-phase HPLC equipped with a Waters Symmetrie C18 column and Waters Sentry Guard column. The isocratic HPLC run is performed at RT with a flow rate of 1 ml/min and acetonitrile/water 48:52 as the eluent. The radioactivity was measured by means of a Packard Flow Scintillation Analyzer. […]

Sequence of 17β-HSD1 (P14061 whole entry): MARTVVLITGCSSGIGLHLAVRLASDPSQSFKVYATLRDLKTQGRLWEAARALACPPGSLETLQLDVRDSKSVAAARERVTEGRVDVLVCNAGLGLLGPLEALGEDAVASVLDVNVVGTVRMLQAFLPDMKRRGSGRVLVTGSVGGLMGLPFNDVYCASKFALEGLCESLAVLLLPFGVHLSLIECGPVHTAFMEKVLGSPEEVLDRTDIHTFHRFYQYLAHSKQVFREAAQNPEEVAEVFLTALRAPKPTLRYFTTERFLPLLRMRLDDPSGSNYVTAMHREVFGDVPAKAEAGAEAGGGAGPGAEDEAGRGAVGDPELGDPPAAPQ

Consider `Oc1cccc(-c2cc3cc(O)ccc3[nH]2)c1` [Compound 1, 2-(3-Hydroxyphenyl)-1H-indol-5-ol], for which the inhibition – broadly, how much of the control response was suppressed – at 1 µM was under 10% and the inhibition at 0.1 µM was under 10%.
For the molecule `Oc1ccc2cc(-c3ccccc3)ccc2c1` [Compound 2, 6-Phenylnaphthalene-2-ol], the inhibition at 1 µM is under 10% and the inhibition at 0.1 µM was under 10%.
Take `Oc1cccc(-c2ccc3ccccc3c2)c1` [Compound 3, 3-Naphthalene-2-ylphenol]: the inhibition at 1 µM amounted to 61% and the inhibition at 0.1 µM stood at 26%.
As for `Oc1ccc2cc(-c3cccnc3)ccc2c1` [Compound 4, 3-(6-hydroxy-2-naphthyl)pyridine], the inhibition at 1 µM is 31.6% and the inhibition at 0.1 µM is under 10%.
For `Oc1ccc2cc(-c3ccsc3)ccc2c1` [Compound 5], the inhibition at 1 µM was under 10% and the inhibition at 0.1 µM was under 10%.
As to `Oc1ccc2cc(-c3cccs3)ccc2c1` [Compound 6], the inhibition at 1 µM was under 10% and the inhibition at 0.1 µM was under 10%.
On to `O=C(O)c1cccc(-c2ccc3cc(O)ccc3c2)c1` [Compound 7, 3-(6-hydroxy-2-naphthyl)benzoic acid], for which the inhibition at 1 µM turned out to be 75.8% and the inhibition at 0.1 µM was 36.3%.
Regarding `O=C(O)c1ccc(-c2ccc3cc(O)ccc3c2)cc1` [Compound 8, 4-(6-hydroxy-2-naphthyl)benzoic acid], the inhibition at 1 µM is under 10% and the inhibition at 0.1 µM is under 10%.
For `CC(=O)Nc1cccc(-c2ccc3cc(O)ccc3c2)c1` [Compound 9, N-[3-(6-hydroxy-2-naphthyl)phenyl]acetamide], the inhibition at 1 µM was 18.5% and the inhibition at 0.1 µM was under 10%.
`OCc1cccc(-c2ccc3cc(O)ccc3c2)c1` [Compound 10, 6-[3-(hydroxymethyl)-phenyl]-2-naphthol]: the inhibition at 1 µM was under 10% and the inhibition at 0.1 µM was under 10%.
Consider `OCc1ccc(-c2ccc3cc(O)ccc3c2)cc1` [Compound 11, 6-[4-(hydroxymethyl)phenyl]-2-naphthol], for which the inhibition at 1 µM is 12.9% and the inhibition at 0.1 µM is under 10%.
Regarding `Oc1cccc(-c2ccc3cc(O)ccc3n2)c1` [Compound 12, 2-(3-Hydroxyphenyl)quinolin-6-ol], the inhibition at 1 µM amounted to 56.9% and the inhibition at 0.1 µM turned out to be 24%.
Regarding `Oc1cccc(-c2cnc3ccccc3c2)c1` [Compound 13, 3-(Quinolin-3-yl)phenol], the inhibition at 1 µM was under 10% and the inhibition at 0.1 µM was under 10%.
On to `Oc1ccc(-c2cnc3ccccc3c2)cc1` [Compound 14, 4-(Quinolin-3-yl)phenol], for which the inhibition at 1 µM is under 10% and the inhibition at 0.1 µM was under 10%.
Consider `Oc1ccc(-c2cnc3cc(O)ccc3c2)cc1` [Compound 15, 3-(4-Hydroxyphenyl)quinolin-7-ol], for which the inhibition at 1 µM is under 10% and the inhibition at 0.1 µM was under 10%.
Take `Oc1cccc(-c2cnc3cc(O)ccc3c2)c1` [Compound 16, 3-(3-Hydroxyphenyl)quinolin-7-ol]: the inhibition at 1 µM stood at 56.9% and the inhibition at 0.1 µM came out at 24%.
With `Oc1cncc(-c2ccc3cc(O)ccc3c2)c1` [Compound 17, 5-(6-Hydroxynaphthalene-2-yl)pyridin-3-ol], the inhibition at 1 µM was 57.7% and the inhibition at 0.1 µM amounted to 30.3%.
Consider `Oc1ccc2cc(-c3ccccc3O)ccc2c1` [Compound 18, 6-(2-Hydroxyphenyl)-2-naphthol], for which the inhibition at 1 µM is under 10% and the inhibition at 0.1 µM was under 10%.
Take `Oc1ccc(-c2ccc3cc(O)ccc3c2)cc1` [Compound 20, 6-(4-Hydroxyphenyl)-2-naphthol]: the inhibition at 1 µM is under 10% and the inhibition at 0.1 µM is under 10%.
Turning to `Oc1ccc(-c2ccc3c(O)cccc3c2)cc1` [Compound 21, 6-(4-Hydroxyphenyl)-1-naphthol], the inhibition at 1 µM was under 10% and the inhibition at 0.1 µM is under 10%.
Take `O=[N+]([O-])c1cccc(-c2ccc3cc(O)ccc3c2)c1` [Compound 22, 6-(3-Nitrophenyl)-naphthalene-2-ol]: the inhibition at 1 µM is under 10% and the inhibition at 0.1 µM is under 10%.
In the case of `Nc1cccc(-c2ccc3cc(O)ccc3c2)c1` [Compound 23, 6-(3-Aminophenyl)-naphthalen-2-ol], the inhibition at 1 µM is under 10% and the inhibition at 0.1 µM was under 10%.
As for `Oc1cccc(-c2ccc3c(O)cccc3c2)c1` [Compound 24, 6-(3-Hydroxyphenyl)-1-naphthol], the inhibition at 1 µM was under 10% and the inhibition at 0.1 µM is under 10%.
Regarding `COc1ccc(-c2ccc3c(O)cccc3c2)cc1` [Compound 25, 6-(4-Methoxyphenyl)-1-naphthol], the inhibition at 1 µM was under 10% and the inhibition at 0.1 µM is under 10%.
Consider `Cc1cc(O)cc(-c2ccc3cc(O)ccc3c2)c1` [Compound 26, 6-(3-Hydroxy-5-methylphenyl)-2-naphthol], for which the inhibition at 1 µM was 41.7% and the inhibition at 0.1 µM turned out to be 14.3%.
Regarding `Oc1ccc(-c2cc(O)cc(-c3ccc4cc(O)ccc4c3)c2)cc1` [Compound 27, 5-(6-Hydroxy-2-naphthyl)-1,1′-biphenyl-3,4′-diol], the inhibition at 1 µM was under 10% and the inhibition at 0.1 µM is under 10%.
With `Oc1cc(-c2ccc3cc(O)ccc3c2)cc(-c2ccc3cc(O)ccc3c2)c1` [Compound 28, 6-[3-Hydroxy-5-(6-hydroxy-2-naphthyl)phenyl]-2-naphthol], the inhibition at 1 µM was under 10% and the inhibition at 0.1 µM is under 10%.
With `CNC(=O)c1cc(O)cc(-c2ccc3cc(O)ccc3c2)c1` [Compound 29, 3-Hydroxy-5-(6-hydroxynaphthalen-2-yl)-N-methylbenzamide], the inhibition at 1 µM was under 10% and the inhibition at 0.1 µM is under 10%.
Consider `O=C(Nc1ccccc1)c1cc(O)cc(-c2ccc3cc(O)ccc3c2)c1` [Compound 30, 3-Hydroxy-5-(6-hydroxynaphthalene-2-yl)-N-phenylbenzamide], for which the inhibition at 1 µM was under 10% and the inhibition at 0.1 µM is under 10%.
As to `CNC(=O)/C=C/c1cc(O)cc(-c2ccc3cc(O)ccc3c2)c1` [Compound 31, (E)-3-[3-Hydroxy-5-(6-hydroxynaphthalene-2-yl)phenyl]-N-methylacrylamide], the inhibition at 1 µM is under 10% and the inhibition at 0.1 µM was under 10%.
Turning to `O=C(/C=C/c1cc(O)cc(-c2ccc3cc(O)ccc3c2)c1)Nc1ccccc1` [Compound 32, (E)-3-[3-Hydroxy-5-(6-hydroxynaphthalene-2-yl)phenyl]-N-phenylacrylamide], the inhibition at 1 µM came out at 19.6% and the inhibition at 0.1 µM is under 10%.
Regarding `CNC(=O)CCc1cc(O)cc(-c2ccc3cc(O)ccc3c2)c1` [Compound 33, 3-[3-Hydroxy-5-(6-hydroxynaphthalene-2-yl)phenyl]-N-methylpropionamide], the inhibition at 1 µM was under 10% and the inhibition at 0.1 µM is under 10%.
With `O=C(CCc1cc(O)cc(-c2ccc3cc(O)ccc3c2)c1)Nc1ccccc1` [Compound 34, 3-[3-Hydroxy-5-(6-hydroxynaphthalene-2-yl)phenyl]-N-phenylpropionamide], the inhibition at 1 µM came to 13.6% and the inhibition at 0.1 µM is under 10%.
